Test results from ChEMBL document CHEMBL1201862, “PubChem BioAssay data set” (2004).
Activity calls are given as the source filed them.

Assays:
Beta-lactamase [1] = target: Beta-lactamase (Salmonella choleraesuis (strain SC-B67), UniProt Q5J463); assay: Epi-absorbance-based counterscreen for selective VIM-2 inhibitors: dose response biochemical high throughput screening assay to identify inhibitors of TEM-1 serine-beta-lactamase.
Beta-lactamase [2] = target: T1, Beta-lactamase (Pseudomonas aeruginosa, UniProt Q79MP6); assay: IMP-1 metallo-beta-lactamase inhibitors, dose response, selectivity assay for VIM-2 inhibitor project, biochemical, epi-absorbance (AID 1920)
Beta-lactamase [3] = target: T1, Beta-lactamase; assay: […] counterscreen for selective VIM-2 inhibitors: dose response biochemical high throughput screening assay to identify inhibitors of IMP-1 metallo-beta-lactamase.
Major prion protein = Major prion protein (Homo sapiens, UniProt P04156); type: functional, cell-based
[4] = target: Eukaryotic translation initiation factor 4H (Homo sapiens, UniProt Q15056); assay: human eIF4H binding inhibitors, primary screen, translation initiation inhibitor project, biochemical, uHTS, fluorescence polarization (AID 2012)
[5] = target: Polyadenylate-binding protein 1 (Homo sapiens, UniProt P11940); assay: PABP poly(A) RNA binding inhibitors, primary screen, biochemical, fluorescence polarization, uHTS (AID 2014)
Nonstructural protein 1 = Nonstructural protein 1 (Influenza A virus, UniProt Q194T2); type: functional, Influenza A virus (A/California/07/2009(H1N1))
Genome polyprotein = Genome polyprotein (dengue virus type 2, UniProt P29990); assay: Dengue-2 NS5 methyltransferase inhibitors, primary screen, biochemical, confirmation dose response (AID 588689); type: functional
Protein skinhead-1 = target: T2, Protein skinhead-1 (Caenorhabditis elegans, UniProt P34707); type: functional
T2 sequence (P34707 whole entry): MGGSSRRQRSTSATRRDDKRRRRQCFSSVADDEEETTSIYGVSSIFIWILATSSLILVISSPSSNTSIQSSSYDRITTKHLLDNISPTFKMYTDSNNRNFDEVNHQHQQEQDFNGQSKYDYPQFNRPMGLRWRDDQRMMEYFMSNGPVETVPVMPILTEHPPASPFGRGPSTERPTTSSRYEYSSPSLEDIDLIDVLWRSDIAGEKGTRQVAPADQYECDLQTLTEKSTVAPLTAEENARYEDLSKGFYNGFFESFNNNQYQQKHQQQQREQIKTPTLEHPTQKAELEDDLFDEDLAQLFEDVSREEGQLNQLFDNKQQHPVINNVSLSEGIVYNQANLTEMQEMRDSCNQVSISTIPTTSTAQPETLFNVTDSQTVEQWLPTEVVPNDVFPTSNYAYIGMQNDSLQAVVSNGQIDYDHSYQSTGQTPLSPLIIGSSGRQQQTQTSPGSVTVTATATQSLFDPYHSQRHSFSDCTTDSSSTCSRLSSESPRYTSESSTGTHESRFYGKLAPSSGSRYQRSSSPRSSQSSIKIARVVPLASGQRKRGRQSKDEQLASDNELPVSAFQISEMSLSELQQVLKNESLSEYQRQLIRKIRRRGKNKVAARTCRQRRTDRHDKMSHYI

[6] = HeLa cell cytotoxicity, dose response, cytotoxicity control for MgcRacGAP inhibitor project (AID 624300); type: functional
[7] = target: T3, Rac GTPase-activating protein 1 (Homo sapiens, UniProt Q9H0H5); assay: MgcRacGAP GTPase-activating activity inhibitors, confirmation, biochemical, ADP Hunter fluorescence, primary and confirmatory (AID 624330); type: functional
T3 sequence (Q9H0H5 whole entry): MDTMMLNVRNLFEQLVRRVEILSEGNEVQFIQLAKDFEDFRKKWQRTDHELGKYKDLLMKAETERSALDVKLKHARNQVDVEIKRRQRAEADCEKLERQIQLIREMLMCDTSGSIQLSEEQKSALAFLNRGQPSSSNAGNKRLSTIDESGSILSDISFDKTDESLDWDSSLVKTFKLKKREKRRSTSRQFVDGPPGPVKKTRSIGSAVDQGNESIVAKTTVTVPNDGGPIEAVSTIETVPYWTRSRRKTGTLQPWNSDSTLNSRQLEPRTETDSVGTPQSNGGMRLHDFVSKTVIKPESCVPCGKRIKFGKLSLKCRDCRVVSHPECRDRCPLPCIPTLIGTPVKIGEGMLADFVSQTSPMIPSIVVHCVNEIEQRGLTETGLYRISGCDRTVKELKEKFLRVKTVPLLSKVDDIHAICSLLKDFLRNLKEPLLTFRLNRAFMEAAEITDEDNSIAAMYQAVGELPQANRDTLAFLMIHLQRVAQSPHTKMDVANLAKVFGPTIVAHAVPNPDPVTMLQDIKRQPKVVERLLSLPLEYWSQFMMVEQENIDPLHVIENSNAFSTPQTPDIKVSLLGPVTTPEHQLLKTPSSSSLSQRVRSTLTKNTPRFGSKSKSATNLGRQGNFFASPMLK

[8] = target: Matrix metalloproteinase-14 (Homo sapiens, UniProt P50281); assay: Dose Response confirmation of uHTS hits for a small molecule inhibitors of MT1-MMP activation in a fluorescence assay set 1.; type: functional
[9] = target: T4, Methionyl-tRNA synthetase, putative (Trypanosoma brucei brucei, UniProt Q38C91); type: functional, Trypanosoma brucei brucei strain 927/4 GUTat10.1
T4 sequence (Q38C91 whole entry): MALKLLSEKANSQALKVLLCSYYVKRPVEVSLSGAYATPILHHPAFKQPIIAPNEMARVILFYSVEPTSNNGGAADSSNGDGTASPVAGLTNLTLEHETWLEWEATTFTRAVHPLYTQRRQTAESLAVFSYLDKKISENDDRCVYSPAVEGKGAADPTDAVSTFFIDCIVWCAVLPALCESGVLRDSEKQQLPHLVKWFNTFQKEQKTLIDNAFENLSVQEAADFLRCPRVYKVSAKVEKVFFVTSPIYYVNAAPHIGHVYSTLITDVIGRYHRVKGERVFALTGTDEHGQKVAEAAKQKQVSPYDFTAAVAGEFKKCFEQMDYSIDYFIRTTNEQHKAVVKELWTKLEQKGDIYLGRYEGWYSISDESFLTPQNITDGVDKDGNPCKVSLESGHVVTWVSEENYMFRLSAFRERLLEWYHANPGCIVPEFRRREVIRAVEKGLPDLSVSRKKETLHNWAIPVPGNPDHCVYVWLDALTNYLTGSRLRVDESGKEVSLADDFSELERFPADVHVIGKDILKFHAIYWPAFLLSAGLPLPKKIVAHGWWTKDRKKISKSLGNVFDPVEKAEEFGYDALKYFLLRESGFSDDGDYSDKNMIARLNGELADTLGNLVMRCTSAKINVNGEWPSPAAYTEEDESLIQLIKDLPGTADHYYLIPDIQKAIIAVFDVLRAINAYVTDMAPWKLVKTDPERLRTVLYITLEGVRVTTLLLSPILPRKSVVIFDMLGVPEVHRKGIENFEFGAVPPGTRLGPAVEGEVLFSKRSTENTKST

[10] = Counterscreen for inhibitors of Trypanosoma brucei methionyl tRNA synthetase (MetRS): Luminescence-based cell-based high throughput dose response assay to identify compounds that are cytotoxic to Jurkat human T lymphocyte cells.; type: functional
[11] = target: T4, Methionyl-tRNA synthetase, putative; type: functional, Trypanosoma brucei brucei strain 927/4 GUTat10.1; remark: listed apart in the source
[12] = Late stage counterscreen for inhibitors of Trypanosoma brucei methionyl tRNA synthetase (MetRS): Luminescence-based cell-based high throughput dose response assay to identify compounds that are cytotoxic to Jurkat human T lymphocyte cells.; type: functional
[13] = target: Histone-lysine N-methyltransferase NSD2 (Homo sapiens, UniProt O96028); type: biochemical
[14] = target: Tyrosyl-DNA phosphodiesterase 2 (Homo sapiens, UniProt O95551); assay: human TDP2 enzyme inhibitors, dose response, biochemical, epi absorbance, IC50 (AID 743297)
[15] = HepG2 cell cytotoxicity, dose response, cytotoxicity control, CellTiter-Glo luminescence, cherry-pick, set 2 (AID 743395); type: functional
[16] = miR-122 activators in hepatoma reporter cells, dose response, cell-based, Huh7 psiCHECK-miR122, Renilla luciferase, cherry-picked (AID 651956); type: functional;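 also: huh7 hepatoma cells stably carrying a psiCHECK-2 miR-122 sensor plasmid; renilla luciferase signal reporting endogenous miR-122 activity after 48 h compound exposure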
[17] = HEK293T cytotoxicity, dose response, cytotoxicity control for miR-122 modulator project, cell-based, activator set, cherry-pick (AID 720690); type: functional;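 also: HEK293T human cells scored for general mammalian cytotoxicity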
Paired box protein Pax-8 = Paired box protein Pax-8 (Homo sapiens, UniProt Q06710); assay: inhibitors of PAX8-driven TPO luciferase reporter, dose response, RMG-I cells, cherry-pick (AID 687027); type: functional, cell-based;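 also: luciferase reporter driven by Pax8 target thyroperoxidase promoter measured by SteadyGlo luminescence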
[18] = IOSE-T80 ovarian epithelial cell cytotoxicity, dose response, cytotoxicity control for PAX8 inhibitor project, plate reader, dry powder samples (AID 743045); type: functional, cell-based
[19] = inhibitors of PGC1a acetylation in cells, dose response, cell-based, cherry-picked samples (AID 720514); type: functional;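 also: potency may reflect raised or lowered acetylation signal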
[20] = NIH:OVCAR-3 ovarian cancer cell cytotoxicity, dose response, PAX8 inhibitor project, plate reader, dry powder samples (AID 743044); type: functional, cell-based
[21] = IGROV1 ovarian cancer cell cytotoxicity, dose response, PAX8 inhibitor project, plate reader, dry powder samples (AID 743043); type: functional, cell-based; details: IGROV-1
[22] = non-specific cell cytotoxicity, dose response, cytotoxicity control for PAX8 inhibitor project, plate reader, dry powder samples (AID 743021); type: functional, cell-based
[23] = cytotoxicity in OVCAR8 ovarian cancer cells, dose response, PAX8 project, cell-based, plate reader, dry powder samples (AID 743197); type: functional; details: OVCAR-8
[24] = P. falciparum Dd2 growth inhibitors, dose response, SYBR Green, cherry-picked samples (AID 1159567); type: functional, cell-based
[25] = HepG2 cell cytotoxicity, dose response, cytotoxicity control, cherry-picked samples (AID 1159577); type: functional, cell-based

Question: With `CCCCc1cc(=O)oc2c3c(cc(OCC(=O)N4CCC[C@H]4C(=O)O)c12)OC(C)(C)CC3` as the compound, how does the IC50 (Beta-lactamase [1]) read?
Answer: The IC50 was > 59.6 µM (inactive).

Question: And the IC50 (Beta-lactamase [2])?
Answer: The IC50 was > 59.6 µM (inactive).

Question: What about the IC50 (Beta-lactamase [3]) of the same compound?
Answer: Its IC50 is > 59.6 µM (inactive).

Question: What does the source list for `Fc1cccc2sc(Nc3nc4c(F)cccc4s3)nc12`?
Answer: IC50 (Major prion protein): 8.31 µM (active); IC50 (cells): > 138 µM (inactive)

Question: With `CC1=C/C(=C(/c2cc(C)c(O)c(Br)c2)c2ccccc2S(=O)(=O)O)C=C(Br)C1=O` as the compound, how does the IC50 [4] read?
Answer: The IC50 was 8.28 µM (active).

Question: What about the IC50 [5] of the same compound?
Answer: Its IC50 is 6.81 µM (active).

Question: And the IC50 (Nonstructural protein 1)?
Answer: Its IC50 is 16.3 µM (active).

Question: What about the IC50 (Genome polyprotein) of the same compound?
Answer: The IC50 was 38 µM (active).

Question: And the IC50 (Protein skinhead-1)?
Answer: Its IC50 is 34.3 µM (active).

Question: And the CC50 [6]?
Answer: The CC50 was 100 µM (active).

Question: What about the IC50 [7] of the same compound?
Answer: The IC50 was 63.5 µM (active).

Question: And the IC50 [8]?
Answer: Its IC50 is 18.5 µM (active).

Question: Which IC50 [9] does the source give for `O=C(NCc1nc2ccccc2[nH]1)C1=C[C@@H](c2ccccc2)C[C@@H](OCc2ccc(CO)cc2)O1` here?
Answer: Its IC50 is 2.08 µM (active).

Question: And the IC50 [10]?
Answer: The IC50 was 81 µM (inactive).

Question: What about the IC50 [11] of the same compound?
Answer: Its IC50 is 0.835 µM (active).

Question: What about the IC50 [12] of the same compound?
Answer: Its IC50 is > 83.3 µM (inactive).

Question: For `O=C1C=C(O)c2nc(O)ccc2C1=O`, which AC50 [13] is on record?
Answer: The AC50 was 13.1 µM (active).

Question: And the IC50 [14]?
Answer: The IC50 was 80 µM (inactive).

Question: For `COc1cc(NC(=O)c2csc(N)n2)cc(C(=O)Nc2cccc(C(F)(F)F)c2)c1.O=C(O)C(F)(F)F`, which AbsAC35_uM [15] is on record?
Answer: Its AbsAC35_uM is 51.31 µM.

Question: With `CCC(=O)N(C)C[C@H]1Oc2cc(C#Cc3ccccc3)ccc2S(=O)(=O)N([C@H](C)CO)C[C@H]1C` as the compound, how does the AC50 [16] read?
Answer: The AC50 was 10.1 µM (active).

Question: And the AC50 [17]?
Answer: The AC50 was 30.6 µM (active).

Question: What does the source list for `Cc1cccc(-c2ccc([C@H]3[C@@H]4CN(C(=O)Nc5ccc(C(F)(F)F)cc5)C[C@H]3N4)cc2)c1`?
Answer: AC50 (Paired box protein Pax-8): 8.8 µM (active); AC50 [18]: 17 µM (active); AC50 [19]: 4.51 µM (active); AC50 [20]: 18.8 µM (active); AC50 [21]: 33.2 µM (active); AC50 [22]: 22.9 µM (active); AC50 [23]: 25.6 µM (active); AC50 [24]: 3.28 µM (active); AC50 [25]: 9.26 µM (active)
